Test results taken from paper PMC7203245, “Lacosamide intake during pregnancy increases the incidence of foetal malformations and symptoms associated with schizophrenia in the offspring of mice” (Scientific Reports, 2020).

Experiment: LCM and related compounds (RC) in embryos and mothers' serum by high-resolution MS/MSe
Format: in vivo, mice
Conditions: for presence in the serum of mothers: dams given 10-120 mg/kg LCM
Procedure: Samples were extracted as described previously[25] with slight modifications. Briefly, embryos were rinsed with cold saline and ultrapure water, and their wet-weight was determined. […] The mixture was vortexed vigorously for 3 min and centrifuged at 13,000 g for 5 min. The supernatant was transferred to a new Eppendorf tube and evaporated to dryness in a stream of nitrogen gas. The residue was reconstituted with 50 µL of LC-MS Ultrapure water, vortexed for 20 s and centrifuged at 13,000 g for 5 min. The supernatant was transferred to a conic micro insert to be injected onto the UHPLC system.
MS spectra data were collected between m/z 50 and 1000, and MS/MS spectra were registered between 50-300 Da. […] The MS^e procedure was used to identify metabolites in positive ionization mode. UPLC–QTOF-MS^e detection collects data using two scan functions, providing fragment ion information without precursor ion selection. A characteristic m/z in the low energy function allows identification through the fragment ions obtained with the high collision energy function. Two functions were acquired at different collision energies: a low energy function obtained at 2 eV; and a high-energy function obtained using a collision energy ramp ranging from 15 to 30 eV and spectra data collected between m/z 50 and 800. The data station operating the software was a MassLynx version 4.1, while metabolites were identified by means of Metabolynx XS (Waters, Micromass, Manchester, UK).
In this work the following routes were selected for these searches: phase I metabolites Reduction (+H2), Hydroxylation (O), Hydration (+H2O), 2xHydroxylation (+O2), Deacetylation (-C2H2O) and Demethylation (-CH2); and phase II metabolites Acetylation (+C2H2O) and Glucuronide (+C6H8O6).

NCc1ccccc1 [RC 1]
Embryos in which the LCM compound is present (Maternal Dose 10 mg/kg): Embryo1 and 2
presence in the serum of mothers: detected in the serum of all mothers
number of embryos in which detected (embryo from a dam treated with 10 mg/kg LCM): 1

CC(=O)N[C@H](CO)C(=O)NCc1ccccc1 [RC 2, O-Demethyl LCM]
Embryos in which the LCM compound is present (Maternal Dose 10 mg/kg): Embryo1 and 2
Embryos in which the LCM compound is present (Maternal Dose 80 mg/kg): Embryo 5 and 6
presence in the serum of mothers: detected in the serum of all mothers
number of embryos in which detected (embryos from dams treated with 10 mg/kg and 80 mg/kg LCM): 2

COC[C@@H](N)C(=O)NCc1ccccc1 [deacetylacosamide]
presence in samples from mothers (mothers who received 10 mg/kg LCM): contained

CC(=O)N[C@H](CO)C(=O)NCc1ccccc1 [desmethylacosamide]
presence in samples from dams (dams that received 120 mg/kg LCM): some samples from the corresponding dams contained
